Reference: publication PMC4965148 (PLoS ONE, 2016)
“And” between values parts separate entries of the source, which are not always exact repeats. Identical values can stand only once. Like-named read-outs stand apart in the source and are kept apart here.

Experiments:
rat α1β1δε nAChR = target: T1, rat α1β1δε nAChR (Rattus norvegicus, UniProt P09660+P25108+P25109+P25110); assay: Ca2+ flux (FLIPR) agonist/antagonist assay; type: cell-based; settings: FLIPR antagonist mode, EC90 ACh
T1 construct: expressed in transfected cells; host or cells: HEK293 (made by Bristol-Myers Squibb)

[1] = target: T2, HEK293/human α7 nAChR cells (Homo sapiens, UniProt P36544); assay: Whole cell voltage clamp electrophysiology; type: cell-based; settings: for Net Charge (Current Area) normalized to 300 µM ACh / Peak Current normalized to 3 mM ACh: individual cells
T2 construct: expressed in transfected cells
Experimental: Whole-cell voltage clamp studies were conducted on HEK293/rat α7 or HEK293/human α7 nAChR cells. […] Atropine (1 μM) was included in the bathing solution. […] Cells were voltage clamped at a holding potential of -90 mV. Using the Dynaflow microfluidic perfusion system (Cellectricon; flow 26 μl/min) responses to a 300 ms application of ACh or α7 nAChR agonists were measured. Currents were filtered at 2 kHz and sampled at 10 kHz using an EPC-9 amplifier and HEKA Pulse/Patchmaster software. […] The peak current amplitude and net charge crossing the membrane (i.e. the area under the current response curve) induced by agonist application were measured using Clampfit (pClamp Suite) and normalized to the maximal response induced by ACh (3 mM ACh for peak current amplitude and 300 μM ACh for net charge).

C57Bl/6 mice = assay: Mouse 24 h novel object recognition; type: in vivo
Experimental: The procedure followed a 3 day protocol. On day 1 (habituation) individual mice were habituated to the testing chamber (a white PVC box 48 cm long x 38 cm wide x 20 cm high with brown linoleum flooring) for 15 min then returned to their home cage. On day 2 (training) individual mice were returned to the testing chamber containing 2 identical objects and allowed to explore. The training session lasted for up to 15 min or until the mouse explored the objects for a total of 60 s. A maximal trial duration of 15 min was used to accommodate mice that are slower to initiate exploration. On day 3 (testing) individual mice were returned to the testing chamber 24 h later containing 1 familiar object encountered in the previous training session and one novel object. The testing session lasted up to 10 min or until the mouse explored the objects for a total of 60 s. The objects used for these studies were made of duplex legos approximately 3 inches high x 1 inch wide; one object was a multicolored rectangle and the second object was a solid color rectangle with a short arm attached. The location of the objects was counterbalanced between animals but was consistent within animals so that only the object itself was novel on the test session. The familiar object used during the test session was the same object used during training and all objects were thoroughly cleaned between sessions and between subjects. Animal behavior was video recorded during both training and testing and the amount of time spent exploring the objects determined using Cleversys software. Object exploration was only scored when the animal’s nose was within 1 cm of the object. […] The vehicle was chosen for sc dosing to ensure that BMS-933043 was dosed as a solution and not a suspension. […] For each subject the % discrimination index (DI) was calculated for both the training and test session as follows: %DI training = (time exploring object 1—time exploring object 2)/(total time exploring object 1 + object 2) X 100; %DI testing = (time exploring novel object—time exploring familiar object)/(total time exploring novel + familiar object) X 100.

[2] = Plasma and brain concentrations after dosing; type: in vivo, mouse; settings: for Brain Mean ± SD / concentration at 30 min / Kp at 30 min: 30 min; for concentration at 60 min: sc, Mouse MK-801 Y Maze
Experimental: Occupancy determinations were made either on completion of behavioral testing or in satellite groups of animals dosed in parallel with behavioral testing. At specified time points after dosing, the forebrain (for occupancy), the remaining hindbrain (for brain drug exposure) and plasma were collected, frozen in chilled isopentane and stored at -80°C until assayed. […] Homogenized tissue aliquots were frozen immediately and stored at -80°C. […] Non-specific binding was defined by adding 25 μM MLA to wells containing tissues from vehicle-treated animals. […] The filters were washed with ice-cold assay buffer, punched into a clear plate and 200 μl scintillation fluid added per well. Bound radioactivity was measured using a Wallac Microbeta liquid scintillation counter. Specific binding was calculated by subtracting the value of the non-specific binding from that of the total binding in each sample. The percent occupancy was calculated as [1 –(specific binding in drug treated mice/specific binding in vehicle treated mice)] x 100.
In brief, 50 μL of the plasma sample was extracted by protein precipitation with 150 μL acetonitrile containing an internal standard and 5 μL of supernatant injected into the LC-MS/MS system. Analytes were separated by reversed phase chromatography and detection of each analyte was achieved through selected reaction monitoring mode of mass spectrometry.

Adrenergic α2A = Adrenergic α2A (Homo sapiens, UniProt P08913); assay: Selectivity panel, binding
Glucocorticoid receptor = Glucocorticoid receptor (Homo sapiens, UniProt P04150); assay: Selectivity panel, binding
Histamine H2 = Histamine H2 (Homo sapiens, UniProt P25021); assay: Selectivity panel, binding
MAO-B = MAO-B (Homo sapiens, UniProt P27338); assay: Selectivity panel, enzyme; type: biochemical
Muscarinic M3 = Muscarinic M3 (Homo sapiens, UniProt P20309); assay: Selectivity panel, binding; settings: read-out: % inhibition @ 10 µM
Muscarinic M4 = Muscarinic M4 (Homo sapiens, UniProt P08173); assay: Selectivity panel, binding; settings: read-out: % inhibition @ 10 µM
NMDA NR1/2A = NMDA NR1/2A (Homo sapiens, UniProt Q05586+Q12879); assay: Selectivity panel, functional; type: cell-based
Opiate Mu = Opiate Mu (Homo sapiens, UniProt P35372); assay: Selectivity panel, binding
Opiate Kappa = Opiate Kappa (Homo sapiens, UniProt P41145); assay: Selectivity panel, binding
HEK293/Human α7 nAChR = HEK293/Human α7 nAChR (Homo sapiens, UniProt P36544); assay: [3H]-A-585539 filtration binding; set-up: expressed in transfected cells
HEK293/Human α7 nAChR, sequence (P36544 23-502): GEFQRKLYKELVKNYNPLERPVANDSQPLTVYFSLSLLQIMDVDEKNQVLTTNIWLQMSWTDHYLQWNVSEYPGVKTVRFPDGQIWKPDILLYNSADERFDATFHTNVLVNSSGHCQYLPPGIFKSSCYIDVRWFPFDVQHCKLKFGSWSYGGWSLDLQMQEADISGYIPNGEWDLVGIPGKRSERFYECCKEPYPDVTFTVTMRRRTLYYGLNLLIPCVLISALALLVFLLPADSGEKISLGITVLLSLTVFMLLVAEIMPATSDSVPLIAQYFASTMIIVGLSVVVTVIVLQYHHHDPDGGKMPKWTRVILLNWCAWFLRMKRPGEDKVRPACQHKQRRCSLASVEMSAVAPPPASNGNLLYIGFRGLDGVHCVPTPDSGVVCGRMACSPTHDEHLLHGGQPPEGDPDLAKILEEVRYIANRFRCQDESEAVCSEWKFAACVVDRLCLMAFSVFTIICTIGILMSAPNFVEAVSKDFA

T2 sequence (P36544 23-502): as above
Muscarinic M4, sequence (P08173 whole entry): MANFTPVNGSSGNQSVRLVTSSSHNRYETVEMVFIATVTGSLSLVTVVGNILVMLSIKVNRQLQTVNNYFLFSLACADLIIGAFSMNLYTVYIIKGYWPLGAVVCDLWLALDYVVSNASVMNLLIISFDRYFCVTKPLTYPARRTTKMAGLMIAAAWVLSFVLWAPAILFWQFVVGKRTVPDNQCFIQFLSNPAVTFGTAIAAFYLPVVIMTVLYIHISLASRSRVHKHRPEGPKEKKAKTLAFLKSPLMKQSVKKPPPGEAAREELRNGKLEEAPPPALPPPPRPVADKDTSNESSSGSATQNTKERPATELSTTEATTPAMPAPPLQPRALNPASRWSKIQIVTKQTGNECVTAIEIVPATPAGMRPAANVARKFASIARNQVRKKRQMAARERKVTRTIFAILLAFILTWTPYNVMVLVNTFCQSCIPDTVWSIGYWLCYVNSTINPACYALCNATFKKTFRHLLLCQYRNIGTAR
Glucocorticoid receptor, sequence (P04150 whole entry): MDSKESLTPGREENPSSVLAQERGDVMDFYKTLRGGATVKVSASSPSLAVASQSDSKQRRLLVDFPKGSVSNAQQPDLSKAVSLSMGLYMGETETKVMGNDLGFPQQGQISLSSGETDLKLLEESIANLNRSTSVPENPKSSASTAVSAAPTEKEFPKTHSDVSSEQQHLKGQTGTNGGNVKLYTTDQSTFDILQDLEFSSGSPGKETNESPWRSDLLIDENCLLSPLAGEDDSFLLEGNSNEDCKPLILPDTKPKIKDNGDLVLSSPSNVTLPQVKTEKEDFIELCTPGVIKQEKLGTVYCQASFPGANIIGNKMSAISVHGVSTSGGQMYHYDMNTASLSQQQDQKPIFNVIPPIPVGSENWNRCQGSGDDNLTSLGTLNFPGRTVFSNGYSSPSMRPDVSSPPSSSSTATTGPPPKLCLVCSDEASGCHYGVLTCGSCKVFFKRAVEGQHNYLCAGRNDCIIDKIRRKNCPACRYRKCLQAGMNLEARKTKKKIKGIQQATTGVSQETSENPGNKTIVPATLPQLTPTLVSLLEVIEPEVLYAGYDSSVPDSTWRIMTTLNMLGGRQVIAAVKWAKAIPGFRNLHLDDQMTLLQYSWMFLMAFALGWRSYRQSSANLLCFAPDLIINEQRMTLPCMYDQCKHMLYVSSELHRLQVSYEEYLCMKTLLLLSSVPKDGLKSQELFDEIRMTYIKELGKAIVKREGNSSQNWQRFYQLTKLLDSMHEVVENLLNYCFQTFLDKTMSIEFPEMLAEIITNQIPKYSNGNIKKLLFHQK
Opiate Kappa, sequence (P41145 whole entry): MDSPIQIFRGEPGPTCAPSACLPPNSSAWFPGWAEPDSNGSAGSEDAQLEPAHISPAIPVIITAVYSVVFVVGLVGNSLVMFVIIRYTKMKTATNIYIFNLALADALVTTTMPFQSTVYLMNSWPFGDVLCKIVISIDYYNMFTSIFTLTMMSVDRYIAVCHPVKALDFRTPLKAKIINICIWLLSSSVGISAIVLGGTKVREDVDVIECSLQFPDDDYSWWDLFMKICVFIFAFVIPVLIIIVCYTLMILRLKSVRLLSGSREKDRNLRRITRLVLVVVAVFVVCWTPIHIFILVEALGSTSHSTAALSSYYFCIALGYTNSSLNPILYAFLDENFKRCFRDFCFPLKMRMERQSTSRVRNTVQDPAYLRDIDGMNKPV
Adrenergic α2A, sequence (P08913 whole entry): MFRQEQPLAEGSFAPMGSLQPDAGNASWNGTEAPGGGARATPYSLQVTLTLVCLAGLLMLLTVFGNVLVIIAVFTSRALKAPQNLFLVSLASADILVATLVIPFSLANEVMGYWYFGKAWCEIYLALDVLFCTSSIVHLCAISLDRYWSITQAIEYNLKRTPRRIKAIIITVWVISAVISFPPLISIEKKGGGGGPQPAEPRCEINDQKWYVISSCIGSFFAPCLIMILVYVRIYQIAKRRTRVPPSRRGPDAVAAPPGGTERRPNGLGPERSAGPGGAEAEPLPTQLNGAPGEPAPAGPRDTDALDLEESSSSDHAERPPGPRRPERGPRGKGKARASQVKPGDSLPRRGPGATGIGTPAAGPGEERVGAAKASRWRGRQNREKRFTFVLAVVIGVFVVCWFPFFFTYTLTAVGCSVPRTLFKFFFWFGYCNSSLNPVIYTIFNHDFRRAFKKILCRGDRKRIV
Opiate Mu, sequence (P35372 whole entry): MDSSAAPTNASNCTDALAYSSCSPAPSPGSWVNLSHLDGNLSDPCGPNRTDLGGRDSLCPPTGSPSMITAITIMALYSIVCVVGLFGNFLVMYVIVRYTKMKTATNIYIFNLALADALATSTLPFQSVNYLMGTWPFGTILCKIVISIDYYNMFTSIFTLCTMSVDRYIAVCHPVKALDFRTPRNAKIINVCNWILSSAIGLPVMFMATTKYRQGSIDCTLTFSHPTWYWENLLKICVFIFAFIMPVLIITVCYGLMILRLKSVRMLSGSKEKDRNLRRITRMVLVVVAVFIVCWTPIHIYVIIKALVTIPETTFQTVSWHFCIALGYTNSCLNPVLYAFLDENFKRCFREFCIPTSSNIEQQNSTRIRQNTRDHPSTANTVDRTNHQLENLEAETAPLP
MAO-B, sequence (P27338 whole entry): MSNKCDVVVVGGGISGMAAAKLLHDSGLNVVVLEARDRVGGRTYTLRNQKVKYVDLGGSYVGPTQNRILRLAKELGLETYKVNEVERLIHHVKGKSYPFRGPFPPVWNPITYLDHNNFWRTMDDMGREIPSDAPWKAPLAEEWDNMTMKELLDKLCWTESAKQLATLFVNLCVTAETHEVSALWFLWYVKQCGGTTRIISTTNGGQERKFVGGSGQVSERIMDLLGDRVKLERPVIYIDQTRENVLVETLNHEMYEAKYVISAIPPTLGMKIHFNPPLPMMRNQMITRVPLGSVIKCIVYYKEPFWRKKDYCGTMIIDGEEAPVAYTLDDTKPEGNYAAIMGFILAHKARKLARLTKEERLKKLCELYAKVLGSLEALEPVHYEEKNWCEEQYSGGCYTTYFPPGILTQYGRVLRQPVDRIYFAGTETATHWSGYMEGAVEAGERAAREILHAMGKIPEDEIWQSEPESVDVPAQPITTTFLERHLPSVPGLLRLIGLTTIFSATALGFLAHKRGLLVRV
Histamine H2, sequence (P25021 whole entry): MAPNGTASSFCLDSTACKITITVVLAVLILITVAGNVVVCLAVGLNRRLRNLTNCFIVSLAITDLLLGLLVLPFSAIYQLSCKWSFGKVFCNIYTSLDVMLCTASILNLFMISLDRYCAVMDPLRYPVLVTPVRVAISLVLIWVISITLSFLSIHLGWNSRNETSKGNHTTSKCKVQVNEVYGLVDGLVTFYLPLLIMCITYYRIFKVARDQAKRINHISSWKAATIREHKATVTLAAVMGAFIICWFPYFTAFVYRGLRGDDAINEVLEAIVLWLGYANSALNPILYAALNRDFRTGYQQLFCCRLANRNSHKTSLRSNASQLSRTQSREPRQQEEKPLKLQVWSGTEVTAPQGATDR
Muscarinic M3, sequence (P20309 whole entry): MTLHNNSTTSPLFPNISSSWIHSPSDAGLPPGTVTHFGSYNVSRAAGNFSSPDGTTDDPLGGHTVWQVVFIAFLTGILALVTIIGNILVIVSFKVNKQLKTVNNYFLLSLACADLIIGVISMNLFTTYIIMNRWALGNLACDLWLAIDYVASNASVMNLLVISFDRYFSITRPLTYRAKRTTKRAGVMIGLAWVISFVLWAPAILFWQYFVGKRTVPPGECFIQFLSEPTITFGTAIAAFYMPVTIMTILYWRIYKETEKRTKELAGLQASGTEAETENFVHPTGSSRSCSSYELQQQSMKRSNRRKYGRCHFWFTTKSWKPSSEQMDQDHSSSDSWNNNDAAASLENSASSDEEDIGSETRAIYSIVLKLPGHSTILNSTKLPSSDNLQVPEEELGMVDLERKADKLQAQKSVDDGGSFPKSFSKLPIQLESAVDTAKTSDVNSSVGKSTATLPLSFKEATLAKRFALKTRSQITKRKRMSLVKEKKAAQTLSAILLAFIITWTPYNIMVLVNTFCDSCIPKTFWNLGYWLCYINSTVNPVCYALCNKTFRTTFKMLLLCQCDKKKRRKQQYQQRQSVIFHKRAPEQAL

## c1cn(-c2cc(NC3=NC[C@@]4(CN5CCC4CC5)O3)ncn2)cn1 [BMS-933043, (2R)-N-(6-(1H-imidazol-1-yl)-4-pyrimidinyl)-4'H-spiro[4-azabicyclo[2.2.2]octane-2,5'-[1,3]oxazol]-2'-amine]
Rat α1β1δε nAChR
  IC50: > 30 µM
[1]
  EC50: 0.29 ± 0.01 µM
[1]; 0.1 µM
  Net Charge (Current Area) normalized to 300 µM ACh: 0.01982 and 0.01318 and 0.03866 and 0.03782 and 0.02283 and 0.01327 and 0.03856
  Peak Current normalized to 3 mM ACh: 0.005961 and 0.006675 and 0.008382 and 0.007317 and 0.006875 and 0.005721 and 0.00606
[1]; 0.3 µM
  Net Charge (Current Area) normalized to 300 µM ACh: 0.3496 and 0.3624 and 0.3212 and 0.3215 and 0.2954 and 0.3576 and 0.4143
  Peak Current normalized to 3 mM ACh: 0.02637 and 0.02303 and 0.02389 and 0.02438 and 0.0295 and 0.03259 and 0.02737
[1]; 1 µM
  Net Charge (Current Area) normalized to 300 µM ACh: 0.6952 and 0.6304 and 0.6554 and 0.6122 and 0.619 and 0.6592 and 0.8129
  Peak Current normalized to 3 mM ACh: 0.05479 and 0.03294 and 0.04392 and 0.05131 and 0.08504 and 0.08024 and 0.07272
[1]; 3 µM
  Net Charge (Current Area) normalized to 300 µM ACh: 0.7025 and 0.6903 and 0.6991 and 0.888 and 0.7947 and 0.7791 and 0.7655
  Peak Current normalized to 3 mM ACh: 0.126 and 0.0997 and 0.1092 and 0.09913 and 0.1966 and 0.202 and 0.183
[1]; 10 µM
  Net Charge (Current Area) normalized to 300 µM ACh: 0.8035 and 0.7537 and 0.7969 and 0.7637 and 0.7224 and 0.6788 and 0.8823
  Peak Current normalized to 3 mM ACh: 0.217 and 0.1532 and 0.1702 and 0.1779 and 0.3334 and 0.2987 and 0.3004
[1]; Human, normalized to 300 μM ACh
  Mean ± SEM Net Charge Ymax: 0.78 ± 0.004
[1]; Human, normalized to 3 mM ACh
  Mean ± SEM Peak Current Ymaxobs @ 10 μM: 0.24 ± 0.03
C57Bl/6 mice; mice
  total object exploration time in training or testing session: does not alter total object exploration time
C57Bl/6 mice; sc, 30 min prior to training
  effective dose range, 24 h novel object recognition: 0.1 to 10 mg/kg
[2]; Mouse NOR (0.03-1 mg/kg study), 0.03 mg/kg sc
  Brain Mean ± SD: < LLQ
[2]; Mouse NOR (0.03-1 mg/kg study), 0.10 mg/kg sc
  Brain Mean ± SD: < LLQ
[2]; mouse, brain, subcutaneous, 0.3 mg/kg, Mouse NOR (0.03-1 mg/kg study), 0.30 mg/kg sc, read-out: Brain Mean ± SD
  concentration at 30 min: 0.024 ± 0.0039 µM
[2]; mouse, brain, subcutaneous, 1 mg/kg, Mouse NOR (0.03-1 mg/kg study), 1 mg/kg sc, read-out: Brain Mean ± SD
  concentration at 30 min: 0.078 ± 0.0052 µM
[2]; mouse, brain, subcutaneous, 1 mg/kg, Mouse NOR (1-10 mg/kg study), 1 mg/kg sc, read-out: Brain Mean ± SD
  concentration at 30 min: 0.097 ± 0.016 µM
[2]; mouse, brain, subcutaneous, 3 mg/kg, Mouse NOR (1-10 mg/kg study), 3 mg/kg sc, read-out: Brain Mean ± SD
  concentration at 30 min: 0.297 ± 0.048 µM
[2]; mouse, brain, subcutaneous, 10 mg/kg, Mouse NOR (1-10 mg/kg study), 10 mg/kg sc, read-out: Brain Mean ± SD
  concentration at 30 min: 1.11 µM
[2]; mouse, brain/plasma, subcutaneous, 0.3 mg/kg, Mouse NOR (0.03-1 mg/kg study), 0.30 mg/kg sc
  Kp at 30 min: 0.12
[2]; mouse, brain/plasma, subcutaneous, 1 mg/kg, Mouse NOR (0.03-1 mg/kg study), 1 mg/kg sc
  Kp at 30 min: 0.11
[2]; mouse, brain/plasma, subcutaneous, 1 mg/kg, Mouse NOR (1-10 mg/kg study), 1 mg/kg sc
  Kp at 30 min: 0.21
[2]; mouse, brain/plasma, subcutaneous, 3 mg/kg, Mouse NOR (1-10 mg/kg study), 3 mg/kg sc
  Kp at 30 min: 0.19
[2]; mouse, brain/plasma, subcutaneous, 10 mg/kg, Mouse NOR (1-10 mg/kg study), 10 mg/kg sc
  Kp at 30 min: 0.2
[2]; mouse, brain/plasma, subcutaneous, mice, read-out: average brain/plasma
  Kp: 0.17
[2]; mouse, plasma, 0.03 mg/kg, 0.03 mg/kg sc, read-out: Plasma Mean ± SD
  concentration at 60 min: 0.005 ± 0.0004 µM
[2]; mouse, plasma, 0.1 mg/kg, 0.10 mg/kg sc, read-out: Plasma Mean ± SD
  concentration at 60 min: 0.021 ± 0.0024 µM
[2]; mouse, plasma, 0.3 mg/kg, 0.30 mg/kg sc, read-out: Plasma Mean ± SD
  concentration at 60 min: 0.094 ± 0.019 µM
[2]; mouse, plasma, 1 mg/kg, 1 mg/kg sc, read-out: Plasma Mean ± SD
  concentration at 60 min: 0.254 ± 0.032 µM
[2]; mouse, plasma, 3 mg/kg, 3 mg/kg sc, read-out: Plasma Mean ± SD
  concentration at 60 min: 0.774 ± 0.282 µM
[2]; mouse, plasma, 10 mg/kg, 10 mg/kg sc, read-out: Plasma Mean ± SD
  concentration at 60 min: 2.98 µM
[2]; mouse, plasma, subcutaneous, 0.03 mg/kg, Mouse NOR (0.03-1 mg/kg study), 0.03 mg/kg sc, read-out: Plasma Mean ± SD
  concentration at 30 min: 0.014 ± 0.0027 µM
[2]; mouse, plasma, subcutaneous, 0.1 mg/kg, Mouse NOR (0.03-1 mg/kg study), 0.10 mg/kg sc, read-out: Plasma Mean ± SD
  concentration at 30 min: 0.052 ± 0.0036 µM
[2]; mouse, plasma, subcutaneous, 0.3 mg/kg, Mouse NOR (0.03-1 mg/kg study), 0.30 mg/kg sc, read-out: Plasma Mean ± SD
  concentration at 30 min: 0.213 ± 0.049 µM
[2]; mouse, plasma, subcutaneous, 1 mg/kg, Mouse NOR (0.03-1 mg/kg study), 1 mg/kg sc, read-out: Plasma Mean ± SD
  concentration at 30 min: 0.719 ± 0.069 µM
[2]; mouse, plasma, subcutaneous, 1 mg/kg, Mouse NOR (1-10 mg/kg study), 1 mg/kg sc, read-out: Plasma Mean ± SD
  concentration at 30 min: 0.459 ± 0.059 µM
[2]; mouse, plasma, subcutaneous, 3 mg/kg, Mouse NOR (1-10 mg/kg study), 3 mg/kg sc, read-out: Plasma Mean ± SD
  concentration at 30 min: 1.57 µM
[2]; mouse, plasma, subcutaneous, 10 mg/kg, Mouse NOR (1-10 mg/kg study), 10 mg/kg sc, read-out: Plasma Mean ± SD
  concentration at 30 min: 5.55 µM
Adrenergic α2A
  IC50: > 30 µM
Glucocorticoid receptor
  IC50: > 150 µM
Histamine H2
  IC50: > 30 µM
MAO-B
  IC50: > 30 µM
Muscarinic M3
  inhibition at 10 µM: 18%
Muscarinic M4
  inhibition at 10 µM: 10%
NMDA NR1/2A
  IC50: > 30 µM
Opiate Mu
  IC50: > 30 µM
Opiate Kappa
  IC50: > 30 µM
HEK293/Human α7 nAChR; HEK293/Human α7 nAChR Mean ± SD Ki
  Ki: 0.008 µM
HEK293/Human α7 nAChR; HEK293/human α7 nAChR Ki (individual)
  Ki: 0.0105 µM and 0.0057 µM
HEK293/Human α7 nAChR; read-out: HEK293/Human α7 nAChR Mean ± SD Ki
  Ki: 0.0081 µM
HEK293/Human α7 nAChR; read-out: HEK293/human α7 nAChR Ki (individual)
  Ki: 0.0081 µM
